# Data: patent US7427599B2, “Biologically active peptide comprising Tyrosyl-seryl-valine(YSV)” (CMS Peptides Patent Holding Company Limited, priority 2003, dated 2008)
# Marks after values point to notes of the source that are not given here. Peptide text beside a SMILES is read from it.
# Columns and labels:
# [1] = tested on: T lymphocytes (spleen lymphocyte suspension); assay: Effect of YSV on T lymphocyte transformation in vitro (ConA, MTT); type: cell-based, BALB/c Mice; settings: for X ± SD (OD), T lymphocytes transformation: 68 hrs, MTT OD570 nm, positive control 0.14 ± 0.00
# Procedure: Healthy mice were sacrificed by cervical dislocation. The spleens were isolated and dispersed aseptically. The spleen lymphocyte suspension washed and adjusted to a cell density of 5×10^6/ml with RPMI-1640 culture medium containing 10% fetal bovine serum. YSV was diluted with RPMI-1640 culture medium into various concentrations: 2 μg/ml, 0.4 μg/ml, 0.08 μg/ml, 0.016 μg/ml. Con A working solution was adjusted to 1 mg/ml with RPMI-1640 culture medium.
# The reagents were placed onto a 96 wells cell culture plate according to the following: 100 μl/well lymphocyte suspension, 20 μl/well ConA, and 100 μl/well YSV solution of various concentrations, 6 parallel wells for each concentration; 100 μl/well lymphocyte suspension and 120 μl/well RPMI-1640 culture medium (containing 10% FBS) were added to 12 parallel wells as negative control; 100 μl/well lymphocyte suspension, 100 μl/well RPMI-1640 culture medium (10% FBS) and 20 μl/well ConA were added to 12 parallel wells as positive control.
# The cells were incubated for 68 hrs at 37° C., 5% CO2, and then pelleted by centrifugation at 150 g for 10 minutes. After the supernatant was removed, 50 μl/well MTT of 1 mg/ml in RPMI-1640 was added to the cell pellet and the cells were re-suspended by shaking for 2 minutes. The incubation was continued for 4 hours. The supernatant was removed after centrifugation at 150 g for 10 minutes. After blotted dry with filter paper, the cells were mixed with 120 μl 40 mM HCl-2-propanol and shaken for 3 minutes. OD570 nm of each well referenced at 630 nm was obtained with an ELISA reader.
# [2] = tested on: Human liver cancer BEL7402 cells; assay: Proliferation of cultured human liver cancer BEL7402 cells in vitro (MTT); type: cell-based; settings: for % inhibition / OD value: 48 hours; for OD value: MTT OD570nm, negative control 0.36 ± 0.01
# Procedure: Human liver cancer BEL7402 cells at logarithmic growth phase were detached by incubating for 2 to 3 minutes with phosphate buffer saline pH7.4 (PBS) containing 0.05% trypsin and 0.02% EDTA. The cells were examined by inverted phase contrast microscopy. The supernatant was removed after cytoplasm pyknosis and dilatation of cell compartment were observed. A few milliliters of RPMI-1640 culture medium with 10% FBS was added to terminate the digestion. The cells were harvested by gently blowing with a pipette. The suspended cells were collected by centrifugation at 150 g for 10 minutes, and washed twice by cold D-Hank's solution with re-suspension and centrifugation. The washed cells were re-suspended in RPMI-1640 medium with 10% FBS and adjusted to density of 5×10^4/ml. The treated BEL7402 cells were placed onto a 96 wells cell culture plate, 100 μl/well. The cells were incubated for 24 hours at 37° C., 5% CO2 for re-activation and attachment.
# The experiment included three testing groups with different concentrations of YSV and a negative control. The final concentrations of YSV in culture medium were 20 μg/ml, 10 μg/ml, and 5 μg/ml. The YSV solution was replaced by RPMI-1640 culture medium with 10% FBS in the negative control group. Each group contained five parallel wells. The cells were incubated for 48 hours at 37° C., 5% CO2.
# The cells were then pelleted by centrifugation at 150 g for 10 minutes. After the supernatant was removed, 100 μl/well MTT of 0.5 mg/ml in RPMI-1640 was added to the cell pellets and the cells were re-suspended by shaking for 2 minutes. Incubation was continued for 4 hours. The supernatant was removed after centrifugation at 150 g for 10 minutes. After blotted dry by filter paper, 100 μl/well 40 mM HCl-2-propanol was added to the cell pellets and shaken for 3 minutes. OD570nm of each well referenced at 630 nm was obtained by using ELISA reader.
# [3] = tested on: A549 human pulmonary carcinoma; assay: A549 human pulmonary carcinoma xenograft in nude mice; type: in vivo, BALB/c (nu/nu) athymic nude mice; settings: for Tumor inhibition index (%) / Tumor volume (cm^3) / Tumor weight: 40 days
# Procedure: Healthy BALB/c (nu/nu) athymic nude mice (SPF, 4-5 weeks old, weighting 18-22 g) were purchased from Shanghai Tumor Academe of China Medical Academy of Science. In the first experiment, female was used. In the second experiment, male was used.
# Select A549 human pulmonary carcinoma xenografts of diameter longer than 1 cm with good growth on nude mice. Aseptically excise the tumor mass, cut into pieces of 2-4 mm^3 and submerged in RPMI1640. Pulmonary carcinoma nude mice model was prepared by transplanting the tumor mass hypodermally to the back of healthy nude mice near to the neck via an incision at the ventral thorax.
# The nude mice bearing A549 xenografts were randomly divided into groups of: saline control (0.2 ml/day), YSV groups of different dosages, and Cy control (0.2 mg/kg/day). The test substances were dissolved in 0.2 ml saline and administered intraperitoneally to the mice starting from the day after the transplantation, once per day for 40 consecutive days.
# The general condition of the mice was observed daily. The mice were weighed every 3-4 days and the volume of the tumor was measured:
# V=(⅙)πXYZ, where X, Y, and Z were the diameters of the tumor on the 3 planes.
# The day after the last injection, the tumors were excised, weighted, and the volume measured. The tumors were examined for signs of necrosis. Tumor inhibition index=(average tumor weight of saline group−average tumor weight of test group)/average tumor weight of saline group×100%)
# Statistical analysis was performed with SPSS software using one-way ANOVA analysis.
compound,measurement,setting,value
"CC(C)[C@H](NC(=O)[C@H](CO)NC(=O)[C@@H](N)Cc1ccc(O)cc1)C(=O)O [YSV, L-Tyrosyl-L-seryl-L-valine] (H-Tyr-Ser-Val-OH)",stimulation of T lymphocyte transformation activity in vitro (conclusion),"[1]; 0.016 μg/ml to 2 μg/ml, p<0.001",able to stimulate the T lymphocyte transformation activity in vitro with statistical significance
same,"X ± SD (OD), T lymphocytes transformation",[1]; YSV 0.016 μg/ml with ConA,0.21 ± 0.01 OD
same,"X ± SD (OD), T lymphocytes transformation",[1]; YSV 0.08 μg/ml with ConA,0.23 ± 0.00 OD
same,"X ± SD (OD), T lymphocytes transformation",[1]; YSV 0.4 μg/ml with ConA,0.18 ± 0.01 OD
same,"X ± SD (OD), T lymphocytes transformation",[1]; YSV 2 μg/ml with ConA,0.18 ± 0.00 OD
same,inhibition of growth of BEL7402 cells in vitro (conclusion),"[2]; 5 μg/ml to 20 μg/ml, p<0.05",able to inhibit the growth of human hepatocellular carcinoma BEL7402 cells in vitro
same,% inhibition,[2]; 5 μg/ml,9.8%
same,OD value,[2]; 5 μg/ml,0.31 ± 0.01
same,% inhibition,[2]; 10 μg/ml,38.0%
same,OD value,[2]; 10 μg/ml,0.22 ± 0.01
same,% inhibition,[2]; 20 μg/ml,23.7%
same,OD value,[2]; 20 μg/ml,0.27 ± 0.01
same,Tumor inhibition index (%),"[3]; experiment 1, female nude mice, 160 μg/kg/day i.p.",32.8%
same,Tumor volume (cm^3),"[3]; experiment 1, female nude mice, 160 μg/kg/day i.p., saline 1.87 ± 1.10",0.92 ± 0.79* cm^3
same,Tumor weight,"[3]; experiment 1, female nude mice, 160 μg/kg/day i.p., saline 2.49 ± 1.02",1.67 ± 0.97 g
same,Tumor inhibition index (%),"[3]; experiment 1, female nude mice, 320 μg/kg/day i.p.",32.2%
same,Tumor volume (cm^3),"[3]; experiment 1, female nude mice, 320 μg/kg/day i.p., saline 1.87 ± 1.10",0.84 ± 0.45* cm^3
same,Tumor weight,"[3]; experiment 1, female nude mice, 320 μg/kg/day i.p., saline 2.49 ± 1.02",1.69 ± 0.70 g
same,Tumor inhibition index (%),"[3]; experiment 1, female nude mice, 640 μg/kg/day i.p.",37.4%
same,Tumor volume (cm^3),"[3]; experiment 1, female nude mice, 640 μg/kg/day i.p., saline 1.87 ± 1.10",1.17 ± 0.84 cm^3
same,Tumor weight,"[3]; experiment 1, female nude mice, 640 μg/kg/day i.p., saline 2.49 ± 1.02",1.56 ± 1.08 g
same,Tumor inhibition index (%),"[3]; experiment 2, male nude mice, 160 μg/kg/day i.p.",50.8%
same,Tumor volume (cm^3),"[3]; experiment 2, male nude mice, 160 μg/kg/day i.p., saline 1.34 ± 0.69",0.78 ± 0.41 cm^3
same,Tumor weight,"[3]; experiment 2, male nude mice, 160 μg/kg/day i.p., saline 1.51 ± 0.79",0.74 ± 0.31 g
same,inhibition of growth of A549 xenograft in nude mice (conclusion),"[3]; suitable dosages, p<0.05 vs saline",able to inhibit the growth of nude mice-transplanted A549 human pulmonary carcinoma xenograft
